Publication PMC8286840, “Identifying SARS-CoV-2 antiviral compounds by screening for small molecule inhibitors of Nsp3 papain-like protease” (Biochemical Journal, 2021)
Counter-ions that a name gives are not always drawn. Like-named read-outs stand apart in the source and are kept apart here.

Experiments:
[1] = molecular target: T1, SARS-CoV-2 PLpro (nsp3 1564–1878) (Severe acute respiratory syndrome coronavirus 2, UniProt P0DTD1); test: biochemical; parameters: FRET-quenched peptide (Pro3) cleavage by PLpro, 10 min pre-incubation, slope over 20 min, normalised to no-compound control; conditions: low concentration screen, read-out: % of control remaining
[2] = molecular target: T1, SARS-CoV-2 PLpro (nsp3 1564–1878); test: biochemical; parameters: FRET-quenched peptide (Pro3) cleavage by PLpro, 10 min pre-incubation, slope over 20 min, normalised to no-compound control; conditions: high concentration screen, read-out: % of control remaining

C#C[C@]1(O)CC[C@H]2[C@@H]3CCc4cc(O)ccc4[C@H]3CC[C@@]21C [Ethinyl Estradiol]
remaining activity at 1.25 µM ([1]; Well no.=5333): 98.9% | remaining activity at 3.75 µM ([2]; Well no.=5333): 98.6%

CN1[C@@H]2C[C@@H](OC(=O)[C@H](CO)c3ccccc3)C[C@H]1[C@@H]1O[C@@H]12 [Scopolamine]
remaining activity at 1.25 µM ([1]; Well no.=2245): 100% | remaining activity at 3.75 µM ([2]; Well no.=2245): 100%

CCCN(CCC)C1CCc2ccc(O)cc2C1 (racemic)
remaining activity at 1.25 µM ([1]; Well no.=662): 94.1% | remaining activity at 3.75 µM ([2]; Well no.=662): 94.8%

CCOC(=O)[C@H](CCc1ccccc1)N[C@H]1CS[C@H](c2cccs2)CN(CC(=O)O)C1=O [Temocapril HCl]
remaining activity at 1.25 µM ([1]; Well no.=4764): 106% | remaining activity at 3.75 µM ([2]; Well no.=4764): 109%

CCc1nc(-c2cccc(C)c2)c(-c2ccnc(NC(=O)c3ccccc3)c2)s1 [TAK-715]
remaining activity at 1.25 µM ([1]; Well no.=2751): 99.2% | remaining activity at 3.75 µM ([2]; Well no.=2751): 104%

Nc1ccc(C(=O)NCC(=O)O)cc1 [4-Aminohippuric Acid]
remaining activity at 1.25 µM ([1]; Well no.=5181): 95.9% | remaining activity at 1.25 µM ([1]; Well no.=6349): 105% | remaining activity at 3.75 µM ([2]; Well no.=5181): 95.3% | remaining activity at 3.75 µM ([2]; Well no.=6349): 103%

Nc1nc2[nH]cc(CCc3ccc(C(=O)N[C@@H](CCC(=O)O)C(=O)O)cc3)c2c(=O)[nH]1 [Pemetrexed]
remaining activity at 1.25 µM ([1]; Well no.=8316): 103% | remaining activity at 3.75 µM ([2]; Well no.=8316): 101%

NCCc1c[nH]c2ccccc12 [Tryptamine hydrochloride]
remaining activity at 1.25 µM ([1]; Well no.=291): 97.7% | remaining activity at 3.75 µM ([2]; Well no.=291): 96.5%

Nc1nc2c([nH]c(=O)n2[C@H]2C[C@H](O)[C@@H](CO)O2)c(=O)[nH]1 [8-Hydroxy-2'-deoxyguanosine]
remaining activity at 1.25 µM ([1]; Well no.=7113): 105% | remaining activity at 3.75 µM ([2]; Well no.=7113): 105%

Nc1cc(=O)[nH]c(N)n1 [2,6-Diamino-4-pyrimidinone]
remaining activity at 1.25 µM ([1]; Well no.=452): 104% | remaining activity at 3.75 µM ([2]; Well no.=452): 99.9%

COc1ccc2c(c1)CC[C@@H]1[C@@H]2CC[C@]2(C)[C@@H](NCCCCCCN3C(=O)CCC3=O)CC[C@@H]12 [U-73343]
remaining activity at 1.25 µM ([1]; Well no.=1380): 101% | remaining activity at 3.75 µM ([2]; Well no.=1380): 102%

O=C1C(=O)N(Cc2ccc(-c3ccccc3)cc2)c2ccc(OC(F)(F)F)cc21 [VU 0365114]
remaining activity at 1.25 µM ([1]; Well no.=8036): 97.4% | remaining activity at 3.75 µM ([2]; Well no.=8036): 94.8%

C=CCc1ccc(O)c(OC)c1 [Eugenol]
remaining activity at 1.25 µM ([1]; Well no.=4005): 92.8% | remaining activity at 3.75 µM ([2]; Well no.=4005): 96.7%

O=c1c(-n2ccnn2)c[nH]n1-c1cc(N2CCOCC2)ncn1 [Molidustat (BAY 85-3934)]
remaining activity at 1.25 µM ([1]; Well no.=8542): 101% | remaining activity at 3.75 µM ([2]; Well no.=8542): 111%

CN(C)C(=O)C(CCN1CCC(O)(c2ccc(Cl)cc2)CC1)(c1ccccc1)c1ccccc1 [Loperamide hydrochloride]
remaining activity at 1.25 µM ([1]; Well no.=1073): 94.7% | remaining activity at 3.75 µM ([2]; Well no.=1073): 98.4%

CCc1cc2c(cc1CC)CC(NC[C@H](O)c1ccc(O)c3[nH]c(=O)ccc13)C2 [Indacaterol Maleate]
remaining activity at 1.25 µM ([1]; Well no.=5323): 101% | remaining activity at 3.75 µM ([2]; Well no.=5323): 98.4%

CCN(CC)CCNC(=O)c1c(C)[nH]c(/C=C2\C(=O)Nc3ccc(Cl)cc32)c1C [SU11652]
remaining activity at 1.25 µM ([1]; Well no.=2565): 93.6% | remaining activity at 3.75 µM ([2]; Well no.=2565): 93.7%

Cc1cccc(C)c1NC(=O)C1CCCCN1C (centres unmarked) [Mepivacaine HCl]
remaining activity at 1.25 µM ([1]; Well no.=4981): 99.3% | remaining activity at 3.75 µM ([2]; Well no.=4981): 101%

CCOC(=O)[N-]c1c[n+](N2CCOCC2)no1 [Molsidomine]
remaining activity at 1.25 µM ([1]; Well no.=780): 110% | remaining activity at 1.25 µM ([1]; Well no.=1803): 97.9% | remaining activity at 3.75 µM ([2]; Well no.=780): 104% | remaining activity at 3.75 µM ([2]; Well no.=1803): 96.1%

Nc1nnc(-c2cccc(Cl)c2Cl)c(N)n1 [Lamotrigine]
remaining activity at 1.25 µM ([1]; Well no.=977): 99.1% | remaining activity at 1.25 µM ([1]; Well no.=1832): 95.1% | remaining activity at 3.75 µM ([2]; Well no.=977): 101% | remaining activity at 3.75 µM ([2]; Well no.=1832): 92.9%

CC(C)(C)C#Cc1cc(N(C(=O)[C@H]2CC[C@H](C)CC2)[C@H]2CC[C@H](O)CC2)c(C(=O)O)s1 [VX-222]
remaining activity at 1.25 µM ([1]; Well no.=4903): 97.1% | remaining activity at 3.75 µM ([2]; Well no.=4903): 96.2%

NC(=S)c1ccc[n+]([C@@H]2O[C@H](COP(=O)([O-])OP(=O)(O)OC[C@H]3O[C@@H](n4cnc5c(N)ncnc54)[C@H](OP(=O)(O)O)[C@@H]3O)[C@@H](O)[C@H]2O)c1 [Thio-NADP sodium]
remaining activity at 1.25 µM ([1]; Well no.=1481): 98% | remaining activity at 3.75 µM ([2]; Well no.=1481): 93.5%

CC(N/C(=N\C#N)Nc1ccncc1)C(C)(C)C (centres unmarked) [Pinacidil]
remaining activity at 1.25 µM ([1]; Well no.=1503): 98.1% | remaining activity at 1.25 µM ([1]; Well no.=1603): 103% | remaining activity at 3.75 µM ([2]; Well no.=1503): 97.2% | remaining activity at 3.75 µM ([2]; Well no.=1603): 98.9%

O=c1[nH][nH]c2nnc(-c3c(-c4ccccc4)nn4ccccc34)cc12 [ERK Inhibitor II, Negative control]
remaining activity at 1.25 µM ([1]; Well no.=2456): 98.3% | remaining activity at 3.75 µM ([2]; Well no.=2456): 102%

CCc1ccc(Cc2ccc3c(c2)[C@]2(OC3)O[C@H](CO)[C@@H](O)[C@H](O)[C@H]2O)cc1 [Tofogliflozin(CSG 452)]
remaining activity at 1.25 µM ([1]; Well no.=8776): 101% | remaining activity at 3.75 µM ([2]; Well no.=8776): 102%

C[C@@H]1CC[C@@]2(OC1)O[C@H]1C[C@H]3[C@@H]4CC=C5C[C@@H](O)CC[C@]5(C)[C@H]4CC[C@]3(C)[C@H]1[C@@H]2C [Diosgenin]
remaining activity at 1.25 µM ([1]; Well no.=5192): 96.6% | remaining activity at 3.75 µM ([2]; Well no.=5192): 94.9%

C[C@@H]1CCC[C@H](C)N1NC(=O)c1ccc(Cl)c(S(N)(=O)=O)c1 [Clopamide]
remaining activity at 1.25 µM ([1]; Well no.=1773): 96% | remaining activity at 3.75 µM ([2]; Well no.=1773): 93.8%

Cc1ccc(NC(=O)C(=O)NC2CC(C)(C)NC(C)(C)C2)cc1 [YYA-021]
remaining activity at 1.25 µM ([1]; Well no.=8084): 102% | remaining activity at 3.75 µM ([2]; Well no.=8084): 106%

CCN1CCC[C@H]1CNC(=O)c1cc(S(N)(=O)=O)ccc1OC [(S)-(-)-Sulpiride]
remaining activity at 1.25 µM ([1]; Well no.=1636): 98.3% | remaining activity at 3.75 µM ([2]; Well no.=1636): 103%

C[C@@H]1[C@H](O)[C@@H](C)/C=C/C=C/CC/C=C/C=C/C=C/C=C/[C@H](O[C@@H]2O[C@H](C)[C@@H](O)[C@H](N)[C@@H]2O)C[C@@H]2O[C@](O)(C[C@@H](O)[C@H](O)CC[C@@H](O)C[C@@H](O)C[C@@H](O)CC(=O)O[C@H]1C)C[C@H](O)[C@H]2C(=O)O [Nystatin]
remaining activity at 1.25 µM ([1]; Well no.=2045): 97.9% | remaining activity at 3.75 µM ([2]; Well no.=2045): 100%

CCCC/C=C/CCCCCCCCC(=O)O [10(E)-Pentadecenoic acid]
remaining activity at 1.25 µM ([1]; Well no.=4300): 97.7% | remaining activity at 3.75 µM ([2]; Well no.=4300): 89.6%

CC(O)(CS(=O)(=O)c1ccc(F)cc1)C(=O)Nc1ccc(C#N)c(C(F)(F)F)c1 (centres unmarked) [Bicalutamide]
remaining activity at 1.25 µM ([1]; Well no.=1860): 97.5% | remaining activity at 3.75 µM ([2]; Well no.=1860): 99.2%

O=C(Nc1ccc(C(O)(C(F)(F)F)C(F)(F)F)cc1)c1ccccc1Cl [SR0987]
remaining activity at 1.25 µM ([1]; Well no.=8133): 95.1% | remaining activity at 3.75 µM ([2]; Well no.=8133): 99.6%
